Source: patent US11459323B2, “Monocyclic β-lactam compound for treating bacterial infection” (MEDSHINE DISCOVERY INC., priority 2018, dated 2022)
Converted amounts (≈) assume the structure as drawn.

What was measured:
Experiment in all cases: MIC on clinically isolated bacteria
Format in all cases: cell-based
[1] = system: Pseudomonas aeruginosa M1; conditions: read-out: MIC
Source text: (§1) Twenty-five strains of clinically isolated Acinetobacter baumannii and twenty-seven strains of Pseudomonas aeruginosa were respectively selected and used to determine the minimum inhibitory concentration (MIC) of the compounds by micro-liquid dilution method according to the Institute of Clinical and Laboratory Standard (CLSI) requirements.

[2] = system: Pseudomonas aeruginosa W20; conditions: read-out: MIC
Source text: as §1

[3] = system: Pseudomonas aeruginosa M4; conditions: read-out: MIC
Source text: as §1

[4] = system: Acinetobacter baumannii C427; conditions: Acinetobacter baumannii C427; read-out: Minimum Inhibitory Concentration (MIC)
Source text: as §1

[5] = system: Pseudomonas aeruginosa W21; conditions: read-out: MIC
Source text: as §1

[6] = system: Acinetobacter baumannii C283; conditions: Acinetobacter baumannii C283; read-out: Minimum Inhibitory Concentration (MIC)
Source text: as §1

[7] = system: Pseudomonas aeruginosa C754; conditions: read-out: MIC
Source text: as §1

[8] = system: Pseudomonas aeruginosa W23; conditions: read-out: MIC
Source text: as §1

[9] = system: Acinetobacter baumannii C313; conditions: Acinetobacter baumannii C313; read-out: Minimum Inhibitory Concentration (MIC)
Source text: as §1

[10] = system: Acinetobacter baumannii C357; conditions: Acinetobacter baumannii C357; read-out: Minimum Inhibitory Concentration (MIC)
Source text: as §1

[11] = system: Acinetobacter baumannii C279; conditions: Acinetobacter baumannii C279; read-out: Minimum Inhibitory Concentration (MIC)
Source text: as §1

[12] = system: Pseudomonas aeruginosa W6; conditions: read-out: MIC
Source text: as §1

[13] = system: Acinetobacter baumannii C241; conditions: Acinetobacter baumannii C241; read-out: Minimum Inhibitory Concentration (MIC)
Source text: as §1

[14] = system: Acinetobacter baumannii C402; conditions: Acinetobacter baumannii C402; read-out: Minimum Inhibitory Concentration (MIC)
Source text: as §1

[15] = system: Pseudomonas aeruginosa W27; conditions: read-out: MIC
Source text: as §1

[16] = system: Acinetobacter baumannii C251; conditions: Acinetobacter baumannii C251; read-out: Minimum Inhibitory Concentration (MIC)
Source text: as §1

[17] = system: Acinetobacter baumannii C312; conditions: Acinetobacter baumannii C312; read-out: Minimum Inhibitory Concentration (MIC)
Source text: as §1

[18] = system: Pseudomonas aeruginosa W4; conditions: read-out: MIC
Source text: as §1

[19] = system: Pseudomonas aeruginosa C763; conditions: read-out: MIC
Source text: as §1

[20] = system: Pseudomonas aeruginosa C762; conditions: read-out: MIC
Source text: as §1

[21] = system: Pseudomonas aeruginosa W1; conditions: read-out: MIC
Source text: as §1

[22] = system: Aeruginosa ATCC27853; conditions: Pseudomonas aeruginosa; Aeruginosa ATCC27853; read-out: MIC
Source text: as §1

[23] = system: Pseudomonas aeruginosa W13; conditions: read-out: MIC
Source text: as §1

[24] = system: Acinetobacter baumannii C332; conditions: Acinetobacter baumannii C332; read-out: Minimum Inhibitory Concentration (MIC)
Source text: as §1

[25] = system: Acinetobacter baumannii C390; conditions: Acinetobacter baumannii C390; read-out: Minimum Inhibitory Concentration (MIC)
Source text: as §1

[26] = system: Pseudomonas aeruginosa W19; conditions: read-out: MIC
Source text: as §1

[27] = system: Acinetobacter baumannii C315; conditions: Acinetobacter baumannii C315; read-out: Minimum Inhibitory Concentration (MIC)
Source text: as §1

[28] = system: Pseudomonas aeruginosa C761; conditions: read-out: MIC
Source text: as §1

[29] = system: Acinetobacter baumannii C395; conditions: Acinetobacter baumannii C395; read-out: Minimum Inhibitory Concentration (MIC)
Source text: as §1

[30] = system: Acinetobacter baumannii C319; conditions: Acinetobacter baumannii C319; read-out: Minimum Inhibitory Concentration (MIC)
Source text: as §1

[31] = system: Acinetobacter baumannii C330; conditions: Acinetobacter baumannii C330; read-out: Minimum Inhibitory Concentration (MIC)
Source text: as §1

[32] = system: Pseudomonas aeruginosa W46; conditions: read-out: MIC
Source text: as §1

[33] = system: Pseudomonas aeruginosa W47; conditions: read-out: MIC
Source text: as §1

[34] = system: Acinetobacter baumannii C328; conditions: Acinetobacter baumannii C328; read-out: Minimum Inhibitory Concentration (MIC)
Source text: as §1

[35] = system: Acinetobacter baumannii C408; conditions: Acinetobacter baumannii C408; read-out: Minimum Inhibitory Concentration (MIC)
Source text: as §1

[36] = system: Acinetobacter baumannii C401; conditions: Acinetobacter baumannii C401; read-out: Minimum Inhibitory Concentration (MIC)
Source text: as §1

[37] = system: Acinetobacter baumannii C181; conditions: Acinetobacter baumannii C181; read-out: Minimum Inhibitory Concentration (MIC)
Source text: as §1

[38] = system: Pseudomonas aeruginosa W9; conditions: read-out: MIC
Source text: as §1

[39] = system: Pseudomonas aeruginosa W28; conditions: read-out: MIC
Source text: as §1

[40] = system: Pseudomonas aeruginosa C755; conditions: read-out: MIC
Source text: as §1

[41] = system: Pseudomonas aeruginosa W32; conditions: read-out: MIC
Source text: as §1

Q: `CC1(C)[C@H](NC(=O)/C(=N\O[C@@H](COc2ccc3c(c2)CN(C(=N)NCCN)C3)C(=O)O)c2csc(N)n2)C(=O)N1OS(=O)(=O)O` [Compound 44] was tested. Which MIC [1] did it give?
A: 0.5 µg/mL (≈ 0.747 µM)

Q: And the MIC [2]?
A: 2 µg/mL (≈ 2.99 µM)

Q: What about the MIC [3] of the same molecule?
A: 0.5 µg/mL (≈ 0.747 µM)

Q: What about the MIC [4] of the same molecule?
A: 2 µg/mL (≈ 2.99 µM)

Q: And the MIC [5]?
A: 0.5 µg/mL (≈ 0.747 µM)

Q: What about the MIC [6] of the same molecule?
A: 1 µg/mL (≈ 1.49 µM)

Q: And the MIC [7]?
A: 0.5 µg/mL (≈ 0.747 µM)

Q: And the MIC [8]?
A: 0.5 µg/mL (≈ 0.747 µM)

Q: What about the MIC [9] of the same molecule?
A: 1 µg/mL (≈ 1.49 µM)

Q: What about the MIC [10] of the same molecule?
A: 1 µg/mL (≈ 1.49 µM)

Q: And the MIC [11]?
A: 1 µg/mL (≈ 1.49 µM)

Q: What about the MIC [12] of the same molecule?
A: 4 µg/mL (≈ 5.97 µM)

Q: What about the MIC [13] of the same molecule?
A: 2 µg/mL (≈ 2.99 µM)

Q: And the MIC [14]?
A: 1 µg/mL (≈ 1.49 µM)

Q: What about the MIC [15] of the same molecule?
A: 4 µg/mL (≈ 5.97 µM)

Q: What about the MIC [16] of the same molecule?
A: 4 µg/mL (≈ 5.97 µM)

Q: What about the MIC [17] of the same molecule?
A: 1 µg/mL (≈ 1.49 µM)

Q: And the MIC [18]?
A: 0.5 µg/mL (≈ 0.747 µM)

Q: And the MIC [19]?
A: 2 µg/mL (≈ 2.99 µM)

Q: And the MIC [20]?
A: 4 µg/mL (≈ 5.97 µM)

Q: And the MIC [21]?
A: 2 µg/mL (≈ 2.99 µM)

Q: And the MIC [22]?
A: 0.5 µg/mL (≈ 0.747 µM)

Q: What about the MIC [23] of the same molecule?
A: 0.5 µg/mL (≈ 0.747 µM)

Q: And the MIC [24]?
A: 1 µg/mL (≈ 1.49 µM)

Q: What about the MIC [25] of the same molecule?
A: 1 µg/mL (≈ 1.49 µM)

Q: What about the MIC [26] of the same molecule?
A: 1 µg/mL (≈ 1.49 µM)

Q: What about the MIC [27] of the same molecule?
A: 1 µg/mL (≈ 1.49 µM)

Q: What about the MIC [28] of the same molecule?
A: 1 µg/mL (≈ 1.49 µM)

Q: What about the MIC [29] of the same molecule?
A: 1 µg/mL (≈ 1.49 µM)

Q: And the MIC [30]?
A: 1 µg/mL (≈ 1.49 µM)

Q: And the MIC [31]?
A: 1 µg/mL (≈ 1.49 µM)

Q: And the MIC [32]?
A: 1 µg/mL (≈ 1.49 µM)

Q: And the MIC [33]?
A: 2 µg/mL (≈ 2.99 µM)

Q: What about the MIC [34] of the same molecule?
A: 1 µg/mL (≈ 1.49 µM)

Q: What about the MIC [35] of the same molecule?
A: 1 µg/mL (≈ 1.49 µM)

Q: And the MIC [36]?
A: 1 µg/mL (≈ 1.49 µM)

Q: And the MIC [37]?
A: 2 µg/mL (≈ 2.99 µM)

Q: And the MIC [38]?
A: 4 µg/mL (≈ 5.97 µM)

Q: What about the MIC [39] of the same molecule?
A: 4 µg/mL (≈ 5.97 µM)

Q: What about the MIC [40] of the same molecule?
A: 0.5 µg/mL (≈ 0.747 µM)

Q: What about the MIC [41] of the same molecule?
A: 2 µg/mL (≈ 2.99 µM)

Q: How did the MIC [1] turn out when `CC1(C)[C@H](NC(=O)/C(=N\O[C@@H](COc2ccc3c(c2)CN(C(=N)N(CCN)CCN)C3)C(=O)O)c2csc(N)n2)C(=O)N1OS(=O)(=O)O` [Compound 45] was run?
A: 4 µg/mL (≈ 5.61 µM)

Q: And the MIC [2]?
A: 16 µg/mL (≈ 22.4 µM)

Q: And the MIC [3]?
A: 0.25 µg/mL (≈ 0.351 µM)

Q: And the MIC [4]?
A: 16 µg/mL (≈ 22.4 µM)

Q: What about the MIC [5] of the same molecule?
A: 4 µg/mL (≈ 5.61 µM)

Q: And the MIC [6]?
A: 16 µg/mL (≈ 22.4 µM)

Q: What about the MIC [7] of the same molecule?
A: 4 µg/mL (≈ 5.61 µM)

Q: And the MIC [8]?
A: 4 µg/mL (≈ 5.61 µM)

Q: What about the MIC [9] of the same molecule?
A: 16 µg/mL (≈ 22.4 µM)

Q: What about the MIC [10] of the same molecule?
A: 8 µg/mL (≈ 11.2 µM)

Q: What about the MIC [11] of the same molecule?
A: 16 µg/mL (≈ 22.4 µM)

Q: What about the MIC [12] of the same molecule?
A: > 16 µg/mL

Q: What about the MIC [13] of the same molecule?
A: > 16 µg/mL

Q: What about the MIC [14] of the same molecule?
A: 8 µg/mL (≈ 11.2 µM)

Q: And the MIC [15]?
A: 16 µg/mL (≈ 22.4 µM)

Q: What about the MIC [16] of the same molecule?
A: 16 µg/mL (≈ 22.4 µM)

Q: And the MIC [17]?
A: 16 µg/mL (≈ 22.4 µM)

Q: What about the MIC [18] of the same molecule?
A: 2 µg/mL (≈ 2.81 µM)

Q: What about the MIC [19] of the same molecule?
A: > 16 µg/mL

Q: What about the MIC [20] of the same molecule?
A: > 16 µg/mL

Q: What about the MIC [21] of the same molecule?
A: 16 µg/mL (≈ 22.4 µM)

Q: And the MIC [22]?
A: 2 µg/mL (≈ 2.81 µM)

Q: And the MIC [23]?
A: 4 µg/mL (≈ 5.61 µM)

Q: What about the MIC [24] of the same molecule?
A: 16 µg/mL (≈ 22.4 µM)

Q: What about the MIC [25] of the same molecule?
A: 16 µg/mL (≈ 22.4 µM)

Q: And the MIC [26]?
A: 8 µg/mL (≈ 11.2 µM)

Q: And the MIC [27]?
A: 16 µg/mL (≈ 22.4 µM)

Q: What about the MIC [28] of the same molecule?
A: 8 µg/mL (≈ 11.2 µM)

Q: What about the MIC [29] of the same molecule?
A: 8 µg/mL (≈ 11.2 µM)

Q: What about the MIC [30] of the same molecule?
A: 16 µg/mL (≈ 22.4 µM)

Q: And the MIC [31]?
A: 16 µg/mL (≈ 22.4 µM)

Q: And the MIC [32]?
A: 8 µg/mL (≈ 11.2 µM)

Q: And the MIC [33]?
A: 16 µg/mL (≈ 22.4 µM)

Q: And the MIC [34]?
A: 16 µg/mL (≈ 22.4 µM)

Q: What about the MIC [35] of the same molecule?
A: 8 µg/mL (≈ 11.2 µM)

Q: What about the MIC [36] of the same molecule?
A: 8 µg/mL (≈ 11.2 µM)

Q: And the MIC [37]?
A: > 16 µg/mL

Q: What about the MIC [38] of the same molecule?
A: 16 µg/mL (≈ 22.4 µM)

Q: What about the MIC [39] of the same molecule?
A: > 16 µg/mL

Q: And the MIC [40]?
A: 4 µg/mL (≈ 5.61 µM)

Q: What about the MIC [41] of the same molecule?
A: 16 µg/mL (≈ 22.4 µM)
